Test [1] deals with Heat shock protein HSP 90-alpha (Homo sapiens, UniProt P07900). In words: Luminescence-based dose response biochemical high throughput screening assay for inhibitors of the Heat Shock Protein 90 (HSP90). [Related pubchem assays: 1831 (Summary AID.), 1846 (Confirmation screen.), 1789 (Primary screen.)].
Test [2] can be described thus: blockers of HIV-1 envelope-mediated cell-cell fusion – cherry-pick, dose response (AID 652057). The test is classed as functional, cell-based.
Test [3] in a line: off-target signal loss in HeLa-CEM21 co-culture – HeLa F-luc CTL cells, cherry-picked, counter-screen for HIV-1 Env fusion inhibitor project, dose response (AID 652040).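 Note: potency for signal decrease marking cytotoxic or nonspecific inhibition.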 The test is classed as functional, cell-based. A general note: The purpose of a counterscreen is to sort out artefacts and off-target activity.
Test [4] deals with Dual specificity protein phosphatase 6 (Rattus norvegicus, UniProt Q64346). The test is described as follows: inhibition of rat DUSP6 enzyme activity – biochemical, in vitro, primary screen (AID 425).
Test [5] deals with T1, Bcl-2-related protein A1 (Mus musculus, UniProt Q07440).
T1 sequence (Q07440 whole entry): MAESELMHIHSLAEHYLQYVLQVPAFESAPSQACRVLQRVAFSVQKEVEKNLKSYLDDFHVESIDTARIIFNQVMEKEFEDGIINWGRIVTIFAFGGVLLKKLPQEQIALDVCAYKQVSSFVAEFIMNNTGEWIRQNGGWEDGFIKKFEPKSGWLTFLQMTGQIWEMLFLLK
In words: displacement of Bid BH3 peptide from Bfl-1 – biochemical, fluorescence polarization, FITC-Bid, mouse, primary screen (AID 432).

A short description of test [6]: blockers of HIV-1 ZM109 envelope-driven cell-cell fusion – HeLa effector, CEM target cells, luciferase, cherry-pick, dose response (AID 652058).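 Note: luciferase signal from HIV-1 Env mediated cell-cell fusion of effector and target cells.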 The format is functional, cell-based.
Test [7] addresses T1, Bcl-2-related protein A1. In words: small-molecule antagonists of Bfl-1/BH3 interaction – biochemical, TR-FRET, mouse Bfl-1, confirmation (AID 621). (In TR-FRET formats the signal depends on donor and acceptor labels being close together.)
A short description of test [8]: viability loss in CEM21 cells – cell-based, CellTiter-Glo luminescence, cherry-picked, cytotoxicity control for viral fusion inhibitor project, dose response (AID 652042).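 Note: potency for signal decrease meaning cytotoxicity.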 The format is functional. (In general: ATP-based viability assays read luminescence as a measure of living cells.)
Test [9] can be described thus: HIV-1 AD8 envelope cell-cell fusion blockers – cherry-pick, dose response (AID 652062).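 Note: luciferase signal from cell-cell fusion driven by HIV-1 clade B AD8 Env; potency is for inhibitors of fusion seen as a drop in luminescence.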 The test is classed as functional, cell-based.
Test [10] can be described thus: cytotoxicity in MITF-independent A375 cells – cell-based, CellTiter-Glo luminescence, dry powder, set 9, counter-screen for MITF modulator project, dose response (AID 651591). The test is classed as functional. Particulars: A-375.
Test [11] is described as follows: growth inhibition of SK-MEL-5 melanoma cells – cell-based, CellTiter-Glo luminescence, dry powder, set 8, orthogonal assay for MITF inhibitor project, dose response (AID 651586). The format is functional.
Test [12] can be described thus: cytotoxicity in melanoma parental cells – cell-based, CellTiter-Glo, dry powder, set 6, MITF inhibitor project, dose response (AID 624429). Particulars: SK-MEL-5. The format is functional.
A short description of test [13]: viability loss in MITF-independent A375 cells – cell-based, CellTiter-Glo luminescence, dry powder, set 6, counter-screen for MITF inhibitor project, dose response (AID 624488). The test is classed as functional. Particulars: A-375.
A short description of test [14]: cytotoxicity in MITF-independent A375 cells – cell-based, CellTiter-Glo luminescence, dry powder, set 4, counter-screen for MITF inhibitor project, dose response (AID 624364).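 Note: A375 melanoma cells are MITF independent so this is a counter screen.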 The test is classed as functional. Particulars: A-375.
A short description of test [15]: HepG2 cell cytotoxicity, dose response, cytotoxicity control for non-replicating M. tuberculosis project (AID 489018). The test is classed as functional. Particulars: Mycobacterium tuberculosis.
Test [16] can be described thus: inhibitors of TRPM1-promoter reporter in SK-MEL-5 – cell-based, luciferase, dry powder, set 9, MITF inhibitor project, dose response (AID 651588). The test is classed as functional.
A short description of test [17]: growth inhibition of MALME3 cells – cell-based, CellTiter-Glo luminescence, dry powder, set 5, orthogonal assay for MITF inhibitor project, dose response (AID 651584). The test is classed as functional. Particulars: MALME-3.
A short description of test [18]: THP-1 cell cytotoxicity, dose response, cytotoxicity control for non-replicating M. tuberculosis project (AID 489025). The format is functional.
Test [19] can be described thus: MITF Orthogonal Assay: MALME3 CTG Assay Measured in Cell-Based System Using Plate Reader - 2084-04_Inhibitor_Dose_DryPowder_Activity_Set6. The test is classed as functional. Particulars: MALME-3.
Test [20] can be described thus: Vero E6 cell cytotoxicity, dose response, cytotoxicity control for non-replicating M. tuberculosis project, secondary assay (AID 492998). The format is functional, VeroE6. Particulars: Vero C1008.
Test [21] relates to INS1. The test is described as follows: INS-1E survival protection against cytokine death – cell-based, luminescence, retest, dose response (AID 449756).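 Note: cell death triggered by IL-1 beta plus TNF-alpha plus IFN-gamma mixture; protective hits raise ATP signal compared with cytokine alone wells.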 Particulars: Rattus norvegicus. The test is classed as functional.
The nature of test [22]: MITF Measured in Cell-Based System Using Plate Reader - 2084-01_Inhibitor_Dose_DryPowder_Activity_Set6. The test is classed as functional.
Test [23] is described as follows: viability of PTEN-deleted HCT116 cells – cell-based, HCT116 PTEN knockout, dose response (AID 1047).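 Note: HCT116 colon tumor cells with PTEN knocked out; cells exposed to compound for 60 hours before readout; potency for loss of cell viability measured by luminescence.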 The format is functional.
Test [24] in a line: cells. The test is classed as functional.
A short description of test [25]: viability loss in MITF-independent A375 cells – cell-based, CellTiter-Glo luminescence, dry powder, set 2, counter-screen for MITF inhibitor project, dose response (AID 624489).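 Note: actives are compounds lowering A375 viability meaning general cytotoxicity.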 Particulars: A-375. The test is classed as functional.
Test [26] addresses T2, Streptokinase A (Streptococcus pyogenes serotype M1, UniProt P10520).
T2 sequence (P10520 whole entry): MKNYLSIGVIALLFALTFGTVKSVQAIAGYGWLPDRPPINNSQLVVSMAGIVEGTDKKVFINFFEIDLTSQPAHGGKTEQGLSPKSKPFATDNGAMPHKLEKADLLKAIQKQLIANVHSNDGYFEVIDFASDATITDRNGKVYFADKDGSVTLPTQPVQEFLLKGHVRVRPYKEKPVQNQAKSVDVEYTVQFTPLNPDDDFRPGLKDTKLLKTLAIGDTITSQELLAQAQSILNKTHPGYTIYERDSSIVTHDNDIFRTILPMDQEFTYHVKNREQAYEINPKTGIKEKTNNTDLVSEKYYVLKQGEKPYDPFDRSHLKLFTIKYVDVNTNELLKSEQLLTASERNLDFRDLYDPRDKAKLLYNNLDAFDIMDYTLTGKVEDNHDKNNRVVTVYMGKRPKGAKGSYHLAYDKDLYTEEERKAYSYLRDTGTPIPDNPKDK
In words: viability-normalized secreted streptokinase activity reduction – plasminogen activation absorbance, OD405, dose response (AID 1914).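 Note: secreted streptokinase activity via plasminogen activation per viability signal from cell pellet.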 The format is functional, Streptococcus pyogenes M1 GAS.

Test [27] relates to Streptococcus. The test is described as follows: GAS UMAA2166 growth inhibition – luminescence, BacTiterGlo, counter-screen for streptokinase expression inhibitor project, dose response (AID 1915).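 Note: potency for reduction of bacterial viability or growth.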 The test is classed as functional, organism-based.
A short description of test [28]: viability loss in MITF-independent A375 cells – cell-based, CellTiter-Glo luminescence, dry powder, set 7, counter-screen for MITF inhibitor project, dose response (AID 624490). The format is functional. Particulars: A-375.
Test [29] addresses T3, Microphthalmia-associated transcription factor (Homo sapiens, UniProt O75030).
T3 sequence (O75030 whole entry): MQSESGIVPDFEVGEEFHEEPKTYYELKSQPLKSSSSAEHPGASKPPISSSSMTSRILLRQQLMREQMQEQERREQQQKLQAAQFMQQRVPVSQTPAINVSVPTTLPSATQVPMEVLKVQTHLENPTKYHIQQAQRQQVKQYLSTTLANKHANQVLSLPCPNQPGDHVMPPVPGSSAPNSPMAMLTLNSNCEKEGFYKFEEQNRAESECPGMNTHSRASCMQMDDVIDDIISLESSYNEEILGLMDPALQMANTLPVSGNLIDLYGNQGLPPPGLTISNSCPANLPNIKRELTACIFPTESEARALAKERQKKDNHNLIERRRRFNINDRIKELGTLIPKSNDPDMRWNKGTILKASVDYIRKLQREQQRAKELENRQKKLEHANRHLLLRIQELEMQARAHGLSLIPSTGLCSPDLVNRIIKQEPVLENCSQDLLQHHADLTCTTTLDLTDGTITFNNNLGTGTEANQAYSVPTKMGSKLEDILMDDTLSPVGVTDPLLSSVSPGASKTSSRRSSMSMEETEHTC
The test is described as follows: reducers of TRPM1 reporter luminescence, concentration series – cell-based, SK-MEL-5, cherry-picked, set 3, MITF inhibitor project, dose response (AID 493073).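 Note: SK-MEL-5 melanoma cells with luciferase driven by the MITF target TRPM1 promoter.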 The test is classed as functional.

Test [30] can be described thus: MITF Measured in Cell-Based System Using Plate Reader - 2084-01_Inhibitor_Dose_DryPowder_Activity_Set7. The test is classed as functional.
Test [31] can be described thus: MITF Orthogonal Assay: SK-MEL-5 CTG Assay Measured in Cell-Based System Using Plate Reader - 2084-02_Inhibitor_Dose_DryPowder_Activity_Set5. The format is functional.
In test [32] the test system is Streptococcus sp. 'group A'. In words: Streptococcus pyogenes SK(-)GAS viability under kanamycin – luminescence, BacTiterGlo, confirmation, counter-screen for streptokinase expression inhibitor project, dose response (AID 1900). The format is functional, organism-based.
The nature of test [33]: viability of HCT116 lacking mutant beta-catenin – cell-based, human colon tumor, dose response (AID 1045).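 Note: HCT116 colon tumor cells with beta catenin knocked out; cells exposed to compound for 60 hours.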 The format is functional.
Test [34] in a line: Dd2 parasite growth inhibition in erythrocytes – SYBR Green, dry powder samples, set 9, dose response (AID 1159568). The format is functional, cell-based.
The nature of test [35]: P. falciparum Dd2 growth inhibitors, dose response, SYBR Green, cherry-picked samples (AID 1159567). The test is classed as functional, cell-based.
A short description of test [36]: IC50 of insulin release inhibition, rat insulinoma INS-1E line, 5 mM glucose, cell-based (AID 1117331). The format is functional.
A short description of test [37]: cells. The test is classed as functional, cell-based. Particulars: INS-1E.
For test [38], the target named is Sphingosine 1-phosphate receptor 2 (Homo sapiens, UniProt O95136). In words: Dose Response Cell Based Assay for Agonists of the S1P2 Receptor. [Related pubchem assays: 729, 736, 843 ]. The test is classed as functional.

Where a name gives a salt, the structure may show the parent alone. Calls of active or inactive are those of the source.

Sequence of Sphingosine 1-phosphate receptor 2 (O95136 whole entry): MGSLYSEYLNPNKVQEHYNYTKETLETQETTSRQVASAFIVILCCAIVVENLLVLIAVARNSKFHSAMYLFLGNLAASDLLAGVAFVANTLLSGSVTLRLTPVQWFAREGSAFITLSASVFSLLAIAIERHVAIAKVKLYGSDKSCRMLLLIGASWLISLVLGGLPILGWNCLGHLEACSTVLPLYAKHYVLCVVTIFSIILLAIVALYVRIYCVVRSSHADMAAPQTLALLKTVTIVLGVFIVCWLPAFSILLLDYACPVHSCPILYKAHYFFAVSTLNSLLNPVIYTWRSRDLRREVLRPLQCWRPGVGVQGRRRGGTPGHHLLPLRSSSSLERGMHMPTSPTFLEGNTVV
Sequence of Dual specificity protein phosphatase 6 (Q64346 whole entry): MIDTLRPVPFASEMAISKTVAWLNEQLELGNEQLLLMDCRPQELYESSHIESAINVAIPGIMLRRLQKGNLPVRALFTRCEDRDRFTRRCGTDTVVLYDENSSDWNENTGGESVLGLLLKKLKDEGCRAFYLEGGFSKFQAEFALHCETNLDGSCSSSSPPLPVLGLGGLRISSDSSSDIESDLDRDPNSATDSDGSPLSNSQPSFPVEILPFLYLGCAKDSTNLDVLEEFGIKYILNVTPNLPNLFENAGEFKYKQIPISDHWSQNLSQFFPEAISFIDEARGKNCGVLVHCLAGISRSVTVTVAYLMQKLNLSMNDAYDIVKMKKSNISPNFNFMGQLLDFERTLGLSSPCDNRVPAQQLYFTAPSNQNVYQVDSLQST

What is called IC50 is the concentration at which inhibition is half-maximal. Take `CC(=O)Oc1ccc(Nc2ccccc2)cc1`: in test [1], the IC50 was 6.62 µM (active).
As usually defined, the AC50 is the concentration giving half of the maximal activity seen. As to `Cc1ccc(-c2nn3c(C)nnc3s2)cc1NC(=O)c1ccc(-c2ccc(Cl)cc2Cl)o1`, the AC50 was 6.5 µM (active) in [2]; 9.7 µM (active) in test [3]; 4.6 µM (active) in test [6]; 6.8 µM (active) in test [8]; 5.1 µM (active) in [9]. Further, the results for the concentration for half-maximal inhibition (IC50) in test [4], in test [5] and in [7] were > 10 µM (not active), > 100 µM (not active) and > 100 µM (not active), respectively.
For orientation: CC50 means the concentration at which the toxic effect on the cells reaches its halfway point. The EC50 is the concentration that produces a half-maximal response. On to `Cc1nc2ccccc2n1/N=C/c1ccc([N+](=O)[O-])s1`, for which the AC50 in test [10] was > 70 µM (inactive); in test [11], > 70 µM (inactive); in test [12] it was 10.7 µM (active); in [13], 47.3 µM (active); in test [14], > 70 µM (inactive); in test [16], 7.21 µM (active). Moreover, the concentration at half-maximal activity (AC50) in test [17] was 22.9 µM (active); in test [19], 22.9 µM (active); in test [21], 2.01 µM (active); in test [22], 2.52 µM (active); in [25], > 70 µM (inactive); in [28], > 70 µM (inactive). Moreover, the half-maximal activity concentration (AC50) in test [29] was 3.51 µM (active); in [30] it was 1.1 µM (active); in test [31], 6.24 µM (active). For the same compound, the CC50 in [15] was 12.4 µM (active); in test [18], 5.13 µM (active); in [20], 9.87 µM (active). Also, the concentration for a half-maximal effect (EC50) in [23] is 3.72 µM (active); in test [26] it was > 150 µM (not active); in test [27], 10.7 µM (active); in test [32], 3.63 µM (active); in test [33] it was 2.47 µM (active). Moreover, in [24], the IC50 is 0.43 µM (active).
`CN1C(=O)c2cc(NC(=O)c3cccc(F)c3)ccc2OC[C@H]2O[C@H](CC(=O)NCC3CCCCC3)CC[C@H]21`: the AC50 in test [34] is 8.12 µM (active); in test [35] it was 8.99 µM (active).
`CCN(CC)CCCN(c1ccccc1)C1Cc2ccccc2C1` [APRINDINE HYDROCHLORIDE]: the figures for the IC50 in test [36] and in [37] were 7.13 µM (inactive) and > 33.3 µM (inactive), respectively.
On to `O=C(CCC(=O)N1CCc2ccccc21)Nc1ccccc1`, for which, in test [38], the EC50 is recorded as > 50 µM (not active).

The values are drawn from ChEMBL document CHEMBL1201862, “PubChem BioAssay data set” (2004).
